# Test system: wheat septoria tritici blotch fungus (Mycosphaerella graminicola)
# Test: Control test against wheat septoria tritici blotch fungus, titer plate growth (Test Example 1)
# Format: cell-based
# Conditions: 150 ppm in DMSO, 1 μl in 150 μl medium, 96-well plate, 18° C., 4 days
structure (smiles),measurement,value
CCOC(=O)C(=O)c1ccccc1COc1ccc(-c2cc(Cl)n(C)n2)cc1C [present compound 1],"control activity (Equation 1, degree of growth by absorbance at 550 nm)",≥ 70%
